Consider 9 molecules from patent US5128447A, “Synthetic peptide antagonists of neurokinin A, salts thereof and respective preparation processes” (A. Menarini Industrie Farmaceutiche Riunite S.r.l., priority 1989, dated 1992).

The test addresses T1, neurokinin A receptor (NK-2 receptor) (Rattus norvegicus, UniProt P16610).
T1 sequence (P16610 1-390): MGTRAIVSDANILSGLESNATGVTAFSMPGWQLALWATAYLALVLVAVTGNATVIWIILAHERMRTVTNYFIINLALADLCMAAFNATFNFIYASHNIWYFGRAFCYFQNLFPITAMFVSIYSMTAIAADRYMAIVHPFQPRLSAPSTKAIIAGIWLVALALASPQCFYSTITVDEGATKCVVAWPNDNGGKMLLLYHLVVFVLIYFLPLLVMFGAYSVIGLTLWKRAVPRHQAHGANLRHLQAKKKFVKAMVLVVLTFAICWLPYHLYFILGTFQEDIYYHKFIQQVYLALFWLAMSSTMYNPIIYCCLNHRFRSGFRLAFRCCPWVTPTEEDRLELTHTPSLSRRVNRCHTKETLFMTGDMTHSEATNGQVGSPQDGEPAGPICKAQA
In words: cell-based. Here is the method:
The capacity of the peptides described in the present invention of interacting with the neurokinin A receptor as agonists or antagonists was evaluated by means of an in vitro assay using a preparation, in which the biological response produced by tachykinin and related peptides is exclusively determined by the neuro-kinin A receptor (NK-2 receptor). Such a preparation is the isolated vas deferens of rats, where the tachykinins produce a potentiation of the contractions caused by the intramural nerves following an electrical stimulation. The determination of the activity of the peptides in this preparation was carried out as described by Rovero et al. (Neuropeptides 10, 355, 1987). The agonistic activity of the peptides assayed is expressed as pD2, which represents the […] of the molar concentration of agonist which produces 50% of the maximum effect. […] The pD2 were calculated according to Van Rossum (Arch. Int. Pharmacodyn. 143, 249, 1963), and the pA 2 were calculated from the analysis of the Schild plot (O. Arunlakshana and H. O. Schild, Br. J. Pharmacol., 14, 48, 1959).
The agonists produce a potentiation of the contractions caused by the nerve of the isolated vas deferens of rats. The antagonistic activity is evaluated as the capacity of the product to produce a parallel displacement towards the right of the concentration/response curve of neurokinin A after a contact time of 15 minutes.

Non-standard residues stand in square brackets, D forms with d. Residues, ends and D or L forms follow the SMILES beside them.

Take `CSCC[C@H](NC(=O)[C@@H](Cc1c[nH]c2ccccc12)NC(=O)[C@@H](Cc1c[nH]c2ccccc12)NC(=O)[C@@H](NC(=O)[C@@H](Cc1c[nH]c2ccccc12)NC(=O)[C@H](Cc1ccc(O)cc1)NC(=O)[C@H](CC(=O)O)NC(=O)[C@@H](N)CCCNC(=N)N)C(C)C)C(N)=O` [H--Arg--Asp--Tyr--DTrp--Val--DTrp--DTrp--Met--NH2] (H-RDY[dW]V[dW][dW]M-NH2): the Kb was 251 nM.

As to `CC(C)[C@H](NC(=O)[C@@H](Cc1c[nH]c2ccccc12)NC(=O)[C@H](Cc1ccc(O)cc1)NC(=O)[C@H](CC(=O)O)NC(=O)[C@@H](N)CCCNC(=N)N)C(=O)N[C@H](Cc1c[nH]c2ccccc12)C(=O)N[C@H](Cc1c[nH]c2ccccc12)C(=O)N[C@@H](Cc1ccccc1)C(N)=O` [H--Arg--Asp--Tyr--DTrp--Val--DTrp--DTrp--Phe--NH2] (H-RDY[dW]V[dW][dW]F-NH2), the Kb is 575 nM.

`CC(C)[C@H](NC(=O)[C@@H](Cc1c[nH]c2ccccc12)NC(=O)[C@H](Cc1ccc(O)cc1)NC(=O)[C@@H](N)CC(=O)O)C(=O)N[C@H](Cc1c[nH]c2ccccc12)C(=O)N[C@H](Cc1c[nH]c2ccccc12)C(=O)N[C@@H](CCCNC(=N)N)C(N)=O` [H--Asp--Tyr--DTrp--Val--DTrp--DTrp--Arg--NH2] (H-DY[dW]V[dW][dW]R-NH2): the Kb is 251 nM.

For the molecule `CC(C)[C@H](NC(=O)[C@@H](Cc1c[nH]c2ccccc12)NC(=O)[C@H](Cc1ccc(O)cc1)NC(=O)[C@@H](N)CC(=O)O)C(=O)N[C@H](Cc1c[nH]c2ccccc12)C(=O)N[C@H](Cc1c[nH]c2ccccc12)C(=O)N[C@@H](Cc1ccc(O)cc1)C(N)=O` [H--Asp--Tyr--DTrp--Val--DTrp--DTrp--Tyr--NH2] (H-DY[dW]V[dW][dW]Y-NH2), the Kb is 191 nM.

As to `CC(C)[C@H](NC(=O)[C@@H](Cc1c[nH]c2ccccc12)NC(=O)[C@H](Cc1ccc(O)cc1)NC(=O)[C@H](CC(=O)O)NC(=O)[C@@H](N)CCCCN)C(=O)N[C@H](Cc1c[nH]c2ccccc12)C(=O)N[C@H](Cc1c[nH]c2ccccc12)C(=O)N[C@@H](CCCNC(=N)N)C(N)=O` [H--Lys--Asp--Tyr--DTrp--Val--DTrp--DTrp--Arg--NH2] (H-KDY[dW]V[dW][dW]R-NH2), the Kb is 339 nM.

As to `CC(C)[C@H](NC(=O)[C@@H](Cc1c[nH]c2ccccc12)NC(=O)[C@H](Cc1ccc(O)cc1)NC(=O)[C@H](CC(=O)O)NC(=O)[C@@H](N)[C@@H](C)O)C(=O)N[C@H](Cc1c[nH]c2ccccc12)C(=O)N[C@H](Cc1c[nH]c2ccccc12)C(=O)N[C@@H](CCCNC(=N)N)C(N)=O` [H--Thr--Asp--Tyr--DTrp--Val--DTrp--DTrp--Arg--NH2] (H-TDY[dW]V[dW][dW]R-NH2), the Kb is 251 nM.

On to `CC(C)[C@H](NC(=O)[C@@H](Cc1c[nH]c2ccccc12)NC(=O)[C@H](Cc1ccc(O)cc1)NC(=O)[C@H](CC(=O)O)NC(=O)[C@@H](N)CCCNC(=N)N)C(=O)N[C@H](Cc1c[nH]c2ccccc12)C(=O)N[C@H](Cc1c[nH]c2ccccc12)C(=O)N[C@@H](CCCNC(=N)N)C(N)=O` [H-Arg-Asp-Tyr-DTrp-Val-DTrp-DTrp-Arg-NH2] (H-RDY[dW]V[dW][dW]R-NH2), for which the Kb is 316 nM.

On to `CC(C)[C@H](NC(=O)[C@@H](Cc1c[nH]c2ccccc12)NC(=O)[C@H](Cc1ccc(O)cc1)NC(=O)[C@@H](N)CC(=O)O)C(=O)N[C@H](Cc1c[nH]c2ccccc12)C(=O)N[C@H](Cc1c[nH]c2ccccc12)C(=O)N[C@H](Cc1c[nH]c2ccccc12)C(N)=O` [H-Asp-Tyr-DTrp-Val-DTrp-DTrp-DTrp-NH2] (H-DY[dW]V[dW][dW][dW]-NH2), for which the Kb was 155 nM.

As to `CSCC[C@H](NC(=O)[C@H](CC(C)C)NC(=O)CNC(=O)[C@@H](NC(=O)[C@H](Cc1ccccc1)NC(=O)[C@H](CO)NC(=O)[C@@H](N)CC(=O)O)C(C)C)C(N)=O` [NKA(4-10), reference compound], the EC50 was 1050 nM.

As usually defined, the EC50 is the concentration giving half of the maximal effect.
